EP4793276A1, “DRUG FOR DIAGNOSING DIABETIC NEPHROPATHY AND USE THEREOF” (Fudan University, priority 2023, dated 2025)

Columns and labels:
db/db model mice [1] = assay: SPECT in vivo imaging; conditions: 11.1 MBq via the tail vein, acquisition up to 2 hours, FIG.3
Procedure: SPECT scans were performed using the nanoScan SPECT/CT scanner (Mediso Medical Imaging Systems, Hungary). […] Immediately afterward, the radiation signal was acquired in three-dimensional mode every 30 minutes for up to 2 hours. The energy window is set to 360-700 keV. After completing the SPECT scan, mice were injected with iodofol (Optiray 350; Guerbet) via the tail vein at a dose of 5 µL/g body weight, followed immediately by a 30-second CT scan (X-ray source: 50 kV/980 µA, 480 projections; mice were anesthetized with 1.5% (v/v) isoflurane during both the SPECT and CT scans).

[2] = system: diabetic nephropathy mice; assay: Ex vivo autoradiography of kidneys after tail vein injection; conditions: mouse
Excerpt: The spontaneous type 2 diabetes mice model was developed using the db/db homozygous mice (BKS.Cg-Dock7m+/+LeprdbJ; JAX® Mice Strain Code 607) discovered by the Jackson Laboratory in the United States. […] Their pathogenesis is very similar to that of subjects with type 2 diabetes. The control group mice were either normal mice (m/m) or heterozygous mice (m/db).
Sixty minutes later, the mice were euthanized by dislocation, and their kidneys were removed and rapidly frozen in dry ice. 20 µm frozen sections were prepared using a cryostat (Reward, RWD Minux FS800). Frozen sections were held in contact with the developing plate (FUJIFILM; BAS-IP SR 2025E) for 2 hours, and images were read and quantitatively analyzed using an autoradiography scanner (CR-35 Bio; Elysia-Raytest).

db/db model mice [3] = assay: PET in vivo imaging; conditions: 15 MBq intravenous, 90 minutes acquisition, FIG.3
Procedure: PET scans were performed using an Inveon scanner (Siemens Medical Solutions Knoxville, TN, USA). Mice (m/m and db/db mice) were anesthetized with 1.5% (v/v) isoflurane and then fixed in the center of the FOV of a PET scanner. Immediately after intravenous injection of ^18F-KIDJI-004 (15 MBq), 90 minutes of radiation signals were acquired in three-dimensional mode. The energy window is 350-750 keV. After the PET scan was completed, mice were intravenously injected with iodofol (35%) (Optiray 350; Guerbet) at a dose of 5 µL/g body weight, followed immediately by a 30-second CT scan (X-ray source: 70 kV/88 mA, FOV: 60 mm). Mice were anesthetized with 1.5% (v/v) isoflurane during PET and CT scans.

O=C(c1ccc([131I])cc1)N1CCc2c(nnn2-c2ncccn2)C1 [^131I-KIDJI-007, (4-iodophenyl)(1-(pyrimidin-2-yl)-1,4,6,7-tetrahydro-5H-[1,2,3]triazolo[4,5-c]pyridin-5-yl) methyl ketone]
accumulation in the kidneys of normal mice (db/db model mice [1]): no significant accumulation
accumulation in the renal pelvis of the kidneys of db/db model mice (db/db model mice [1]): significantly accumulated

O=C(c1ccc([N+](=O)[O-])cc1[131I])N1CCc2c(nnn2-c2ncccn2)C1 [^131I-KIDJI-009, (2-iodo-4-nitro)(1-(pyrimidin-2-yl)-1,4,6,7-tetrahydro-5H-[1,2,3]triazolo[4,5-c]pyridin-5-yl) methyl ketone]
accumulation in the kidneys of normal mice (db/db model mice [1]): no significant accumulation
accumulation in the renal pelvis of the kidneys of db/db model mice (db/db model mice [1]): significantly accumulated

O=C(c1ccc([131I])cc1F)N1CCc2c(nnn2-c2ncccn2)C1 [^131I-KIDJI-010, (2-fluoro-4-iodophenyl)(1-(pyrimidin-2-yl)-1,4,6,7-tetrahydro-5H-[1,2,3]triazolo[4,5-c]pyridin-5-yl) methyl ketone]
accumulation in the kidneys of normal mice (db/db model mice [1]): no significant accumulation
accumulation in the renal pelvis of the kidneys of db/db model mice (db/db model mice [1]): significantly accumulated

C[C@H]1Cc2c(nnn2-c2ncccn2)CN1C(=O)c1ccnc(C(F)(F)F)c1[18F] [^18F-KIDJI-003, (S)-(3-fluoro-2-(trifluoromethyl)pyridin-4-yl)(6-methyl-1-(pyrimidin-2-yl)-1,4,6,7-tetrahydro-5H-[1,2,3]triazolo[4,5-c]pyridin-5-yl) methyl ketone]
accumulation in the renal pelvis of diabetic nephropathy mice [2]: significant accumulation

COc1ccc(C(=O)N2CCc3c(nnn3-c3ncccn3)C2)cc1[131I] [^131I-KIDJI-008, (3-iodo-4-methoxyphenyl)(1-(pyrimidin-2-yl)-1,4,6,7-tetrahydro-5H-[1,2,3]triazolo[4,5-c]pyridin-5-yl) methyl ketone]
accumulation in the kidneys of normal mice (db/db model mice [1]): no significant accumulation
accumulation in the renal pelvis of the kidneys of db/db model mice (db/db model mice [1]): significantly accumulated

Cc1cc(C(=O)N2Cc3nnn(-c4ncccn4)c3C[C@@H]2C)cc([18F])n1 [^18F-KIDJI-004, (S)-(2-fluoro-6-methylpyridin-4-yl)(6-methyl-1-(pyrimidin-2-yl)-1,4,6,7-tetrahydro-5H-[1,2,3]triazolo[4,5-c]pyridin-5-yl) methyl ketone]
accumulation in the kidneys of normal mice (db/db model mice [3]): no significant accumulation
accumulation in the renal pelvis of the kidneys of db/db model mice (db/db model mice [3]): significantly accumulated
